Data from PMC7470138, “Novel heterocyclic hybrids of pyrazole targeting dihydrofolate reductase: design, biological evaluation and in silico studies” (Journal of Enzyme Inhibition and Medicinal Chemistry, 2020).
Converted amounts (≈) assume the structure as drawn.

Assays:
[1] = system: A. fumigatus RCMB 002568; assay: Minimum inhibitory concentration (MIC), antifungal; assay type: cell-based, Aspergillus fumigates; settings: A. fumigatus RCMB 002568, fungi, mean of three values; for MIC: Aspergillus fumigatus, RCMB002568, read-out: MIC (Mean ± SEM)
Description: (§1) Solutions of concentrations (1 µg/mL) of the target compounds were used. […] The diameter of inhibition zone (mm) was measured for the biologically activity using the diffusion technique[35]. […] The different concentrations (triplicate) of each compound were tested and compared with standard drugs.

[2] = system: C. albicans RCMB 005036; assay: Minimum inhibitory concentration (MIC), antifungal; assay type: cell-based; settings: Candida albicans, RCMB005036; C. albicans RCMB 005036, fungi; mean of three values; read-out: MIC (Mean ± SEM)
Description: Solutions of concentrations (1 µg/mL) of the target compounds were used. […] The different concentrations (triplicate) of each compound were tested and compared with standard drugs.

[3] = system: S. pneumonia RCMB 010010; assay: Minimum inhibitory concentration (MIC), antibacterial; assay type: cell-based, Streptococcus pneumoniae; settings: S. pneumonia RCMB 010010, Gram-positive, mean of three values; for MIC: Streptococcus pneumoniae, RCMB010010, read-out: MIC (Mean ± SEM)
Description: as §1

[4] = system: B. subtilis RCMB 010067; assay: as above; assay type: cell-based; settings: Bacillus subtilis, RCMB010067; B. subtilis RCMB 010067, Gram-positive; mean of three values; read-out: MIC (Mean ± SEM)
Description: as §1

[5] = system: E. coli RCMB 010052; assay: as above; assay type: cell-based; settings: Escherichia coli, RCMB010052; E. coli RCMB 010052, Gram-negative; mean of three values; read-out: MIC (Mean ± SEM)
Description: as §1

[6] = system: P. aeruginosa RCMB 010043; assay: as above; assay type: cell-based; settings: Pseudomonas aeruginosa, RCMB010043; P. aeruginosa RCMB 010043, Gram-negative; mean of three values; read-out: MIC (Mean ± SEM)
Description: as §1

[7] = target: T1, dihydrofolate reductase (DHFR) (Homo sapiens, UniProt P00374); assay: In vitro enzyme assay on dihydrofolate reductase (DHFR); assay type: biochemical; settings: absorbance at 340 nm, 22 °C, mean of three values, read-out: IC50 (Mean ± SEM) DHFR
T1 sequence (P00374 1-187): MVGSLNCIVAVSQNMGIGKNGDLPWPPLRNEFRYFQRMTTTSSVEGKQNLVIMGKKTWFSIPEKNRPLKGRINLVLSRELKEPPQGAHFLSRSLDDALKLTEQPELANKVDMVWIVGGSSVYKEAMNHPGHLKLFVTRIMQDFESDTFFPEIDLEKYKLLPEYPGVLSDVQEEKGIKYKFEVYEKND

[8] = system: all tested strains (S. pneumoniae, B. subtilis, P. aeruginosa, E. coli, A. fumigates, C. albicans); assay: Antimicrobial sensitivity assay, agar well diffusion (inhibition zone); assay type: cell-based; settings: tested bacteria and fungi
Description: as §1
The screening was done for the in vitro antibacterial activity against Gram-positive Streptococcus pneumoniae and Bacillus subtilis, and Gram-negative Pseudomonas aeruginosa and Escherichia coli, and for the in vitro antifungal activity against Aspergillus fumigates and Candida albicans.

Structure (SMILES) | MIC (Mean ± SEM) [1] [µg/mL] | MIC [1] [µg/mL] | MIC [2] [µg/mL] | MIC (Mean ± SEM) [3] [µg/mL] | MIC [3] [µg/mL] | MIC [4] [µg/mL] | MIC [5] [µg/mL] | MIC [6] [µg/mL] | IC50 [7] [µM] | melting point [°C] | antimicrobial activity (in words) [8]
C[C@@H]1[C@H](O)[C@@H](C)/C=C/C=C/C=C/C=C/C=C/C=C/C=C/[C@H](O[C@@H]2O[C@H](C)[C@@H](O)[C@H](N)[C@@H]2O)C[C@@H]2O[C@](O)(C[C@@H](O)C[C@@H](O)[C@H](O)CC[C@@H](O)C[C@@H](O)CC(=O)O[C@H]1C)C[C@H](O)[C@H]2C(=O)O [Amphotericin B, reference compound] | 1.95 (≈ 2.11 µM) | 1.95 ± 0.3 (≈ 2.11 µM) | 3.9 ± 0.1 (≈ 4.22 µM) | – | – | – | – | – | – | – | –
O=C(O)c1cn(C2CC2)c2cc(N3CCNCC3)c(F)cc2c1=O [Ciprofloxacin, reference compound] | – | – | – | 0.98 (≈ 2.96 µM) | 0.98 ± 0.2 (≈ 2.96 µM) | 0.1 ± 0.3 (≈ 0.302 µM) | 0.01 ± 0.1 (≈ 0.0302 µM) | 0.5 ± 0.05 (≈ 1.51 µM) | – | – | –
CC1=NNC(=O)C1=NNc1ccc(S(N)(=O)=O)cc1 [Compound 3a, 4-(2-(3-Methyl-5-oxo-1,5-dihydro-4H-pyrazol-4-ylidene)hydrazineyl)benzenesulfonamide] | 1.95 (≈ 6.93 µM) | 1.95 ± 0.1 (≈ 6.93 µM) | 3.9 ± 0.3 (≈ 13.9 µM) | 1.95 (≈ 6.93 µM) | 1.95 ± 0.3 (≈ 6.93 µM) | 0.98 ± 0.1 (≈ 3.48 µM) | 0.98 ± 0.6 (≈ 3.48 µM) | 7.81 ± 0.3 (≈ 27.8 µM) | – | – | –
CC1=NNC(=O)C1=NNc1cccc2ccccc12 [Compound 3b, 5-Methyl-4–(2-(naphthalene-1-yl)hydrazineylidene)-2,4-dihydro-3H-pyrazol-3-one] | – | 125 ± 0.2 (≈ 495 µM) | 62.5 ± 0.1 (≈ 248 µM) | – | 7.81 ± 0.1 (≈ 31 µM) | 15.6 ± 0.5 (≈ 62 µM) | 250 ± 0.5 (≈ 991 µM) | 125 ± 0.3 (≈ 495 µM) | 18.3 ± 0.81 | 189 to 191 | –
Cc1nnc2c(C#N)c(N)n(-c3ccc(S(N)(=O)=O)cc3)nc1-2 [Compound 6a, 4-(6-Amino-7-cyano-3-methyl-5H-pyrazolo[4,3-c]pyridazin-5-yl)benzenesulphonamide] | – | 0.98 ± 0.2 (≈ 2.98 µM) | 3.9 ± 0.03 (≈ 11.8 µM) | – | 0.98 ± 0.1 (≈ 2.98 µM) | 0.49 ± 0.2 (≈ 1.49 µM) | 0.49 ± 0.4 (≈ 1.49 µM) | 3.9 ± 0.1 (≈ 11.8 µM) | – | – | highly active
Cc1n[nH]c2c(C#N)c(=O)n(-c3ccc(S(N)(=O)=O)cc3)nc12 [Compound 6b, 4-(7-Cyano-3-methyl-6-oxo-1,6-dihydro-5H-pyrazolo[4,3-c]pyridazin-5-yl)benzenesulphonamide] | 1.95 (≈ 5.9 µM) | 1.95 ± 0.3 (≈ 5.9 µM) | 7.81 ± 0.05 (≈ 23.6 µM) | 1.95 (≈ 5.9 µM) | 1.95 ± 0.4 (≈ 5.9 µM) | 0.98 ± 0.1 (≈ 2.97 µM) | 0.98 ± 0.1 (≈ 2.97 µM) | 62.5 ± 0.3 (≈ 189 µM) | 5.24 ± 0.37 | – | highly active
Cc1nnc2c(C#N)c(N)n(-c3cccc4ccccc34)nc1-2 [Compound 6c, 6-Amino-3-methyl-5-(naphthalen-1-yl)-5H-pyrazolo[4,3-c]pyridazine-7-carbonitrile] | – | – | – | – | – | – | – | – | – | 288 to 290 | either inactive or less active
Cc1n[nH]c2c(C#N)c(=O)n(-c3cccc4ccccc34)nc12 [Compound 6d, 3-Methyl-5-(naphthalen-1-yl)-6-oxo-5,6-dihydro-1H-pyrazolo[4,3-c]pyridazine-7-carbonitrile] | – | – | – | – | – | – | – | – | – | 282 to 284 | either inactive or less active
Cc1nnc2n(-c3ccccc3)c(=S)n(-c3ccc(S(N)(=O)=O)cc3)nc1-2 [Compound 8a, 4-(7-Methyl-4-phenyl-3-thioxo-3,4-dihydro-2H-pyrazolo[3,4-e][1,2,4]triazin-2-yl)benzenesulphonamide] | – | 3.9 ± 0.1 (≈ 9.79 µM) | 62.5 ± 0.5 (≈ 157 µM) | – | 15.6 ± 0.5 (≈ 39.2 µM) | 125 ± 0.4 (≈ 314 µM) | 62.5 ± 0.3 (≈ 157 µM) | 125 ± 0.3 (≈ 314 µM) | 1.36 ± 0.12 | 275 to 277 | highly active
Cc1nnc2n(-c3ccccc3)c(=S)n(-c3cccc4ccccc34)nc1-2 [Compound 8b, 7-Methyl-2-(naphthalen-1-yl)-4-phenyl-2,4-dihydro-3H-pyrazolo[3,4-e][1,2,4]triazine-3-thione] | – | – | – | – | – | – | – | – | – | 257 to 259 | either inactive or less active
Cc1n[nH]c2nn(-c3ccc(S(N)(=O)=O)cc3)nc12 [Compound 9a, 4-(6-Methylpyrazolo[3,4-d][1,2,3]triazol-2(4H)-yl)benzenesulphonamide] | – | 250 ± 0.2 (≈ 898 µM) | 7.81 ± 0.2 (≈ 28.1 µM) | – | 3.9 ± 0.3 (≈ 14 µM) | 1.95 ± 0.08 (≈ 7.01 µM) | 1.95 ± 0.3 (≈ 7.01 µM) | 15.6 ± 0.5 (≈ 56.2 µM) | 1.45 ± 0.23 | > 300 | highly active
Cc1n[nH]c2nn(-c3cccc4ccccc34)nc12 [Compound 9b, 6-Methyl-2-(naphthalen-1-yl)-2,4-dihydropyrazolo[3,4-d][1,2,3]triazole] | – | – | – | – | – | – | – | – | – | > 300 | either inactive or less active
